Earlier results, collected in patent US20070142447A1, “Veterinary composition comprising an arylpyrazole and a nitroenamine with enhanced antiparasitic activity” (Intervet International B.V., priority 2004, published 2007).
Read-outs that look alike come from different tables or passages of the source.

Assays:
[1] = cats
[2] = dogs
fleas = conditions: after 72 hours

## CCN(Cc1ccc(Cl)nc1)/C(=C/[N+](=O)[O-])NC [nitenpyram, (E)-N-(6-chloro-pyridin-3-ylmethyl)-N-ethyl-N-methyl-2-methyl-2-nitrovinylidenediamine]
[1]
  half-life in the blood: 7.7 h
  mean residence time: 10.2 h
[2]
  half-life in the blood: 2.8 h
  mean residence time: 4.1 h
fleas
  lethality of nitenpyram levels in host blood to fleas: not lethal to fleas
